In patent publication US20020026053A1, “Novel 3-(substituted) -2- indolinones compounds and use thereof as inhibitors of protein kinase activity” (priority 1997, published 2002):

What follows are molecules tested against T1, Met receptor (EGFR/Met chimeric cells, EMR) (Homo sapiens, UniProt P08581) (assay: Met Autophosphorylation Assay). Settings: protocol P.130.
T1 construct: expressed in transfected cells; the other entry of the earlier key: EGFR (P00533, Epidermal growth factor receptor)
Type: biochemical
How it was run: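 Transiently transfected EGFR/Met chimeric (EMR) cells were lysed in HNTG with 1 mM PMSF. Met was captured on plates coated with goat anti-rabbit IgG, then rabbit anti-Met (C-28), using 90 μg lysate/100 μl for 60 min at room temperature. Phosphotyrosine was read by ELISA.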

T1 sequence (P08581 with tags, fused parts or gaps): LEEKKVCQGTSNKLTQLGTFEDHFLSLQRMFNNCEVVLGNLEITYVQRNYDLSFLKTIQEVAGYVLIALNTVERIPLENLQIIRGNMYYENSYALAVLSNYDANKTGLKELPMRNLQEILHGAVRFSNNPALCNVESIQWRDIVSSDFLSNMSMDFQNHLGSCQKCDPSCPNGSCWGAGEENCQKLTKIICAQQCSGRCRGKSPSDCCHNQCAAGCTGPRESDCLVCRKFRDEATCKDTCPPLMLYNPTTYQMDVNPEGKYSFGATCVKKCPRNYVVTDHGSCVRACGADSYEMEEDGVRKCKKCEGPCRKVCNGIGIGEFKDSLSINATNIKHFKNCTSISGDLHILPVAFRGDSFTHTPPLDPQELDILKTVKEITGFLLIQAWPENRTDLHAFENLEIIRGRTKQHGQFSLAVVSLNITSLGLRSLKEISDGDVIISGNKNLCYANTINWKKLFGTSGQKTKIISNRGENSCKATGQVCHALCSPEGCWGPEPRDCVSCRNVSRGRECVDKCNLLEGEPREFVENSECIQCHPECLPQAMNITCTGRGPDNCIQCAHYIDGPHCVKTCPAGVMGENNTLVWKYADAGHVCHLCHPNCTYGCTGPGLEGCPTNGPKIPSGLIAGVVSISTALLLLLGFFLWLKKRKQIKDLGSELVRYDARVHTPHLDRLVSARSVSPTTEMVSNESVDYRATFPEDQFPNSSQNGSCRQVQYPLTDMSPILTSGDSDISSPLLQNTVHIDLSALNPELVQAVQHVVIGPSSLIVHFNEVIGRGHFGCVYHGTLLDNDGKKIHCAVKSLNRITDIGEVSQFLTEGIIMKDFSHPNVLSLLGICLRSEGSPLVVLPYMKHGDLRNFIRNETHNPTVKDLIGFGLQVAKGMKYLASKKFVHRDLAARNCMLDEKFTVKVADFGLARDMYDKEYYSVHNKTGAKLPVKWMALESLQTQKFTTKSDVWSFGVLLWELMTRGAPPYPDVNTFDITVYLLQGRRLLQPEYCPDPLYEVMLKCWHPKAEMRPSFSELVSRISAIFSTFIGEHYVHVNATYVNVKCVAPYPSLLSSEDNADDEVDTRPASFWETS

Row | SMILES | Met Kinase % Inhibition (P.130)
1 | CCCOc1ccc(C=C2C(=O)Nc3ccc(S(=O)(=O)Nc4ccc(C(F)(F)F)cc4)cc32)cc1 [10738/E11] | 11.8%
2 | O=C1Nc2ccc(S(=O)(=O)Nc3ccc(C(F)(F)F)cc3)cc2C1=Cc1cc(O)cc(O)c1 [10738/E07] | 89.3%
3 | CNS(=O)(=O)c1ccc2c(c1)C(=Cc1cccc(Oc3ccc(Cl)c(Cl)c3)c1)C(=O)N2 [10738/D03] | 16.0%
4 | CCCOc1ccc(C=C2C(=O)Nc3ccc(I)cc32)cc1 [10738/B11] | 75.4%
5 | COc1ccc(C=C2C(=O)Nc3ccc(CCCl)cc32)cc1O [10738/G04] | 42.6%
6 | COc1ccccc1C=C1C(=O)Nc2ccc(CCCl)cc21 [10738/G09] | 16.9%
7 | O=C1Nc2ccc(CCCl)cc2C1=Cc1cc(O)cc(O)c1 [10738/G07] | 40.4%
8 | COc1ccccc1C=C1C(=O)Nc2ccc(I)cc21 [10738/B09] | 79.4%
9 | O=C1Nc2ccc(I)cc2C1=Cc1cccc(Oc2ccc(Cl)c(Cl)c2)c1 [10738/B03] | 74.0%
10 | CCCOc1ccc(C=C2C(=O)Nc3ccc(Br)c(C)c32)cc1 [10738/C11] | 12.0%
11 | O=C1Nc2ccc(S(=O)(=O)N3CCOCC3)cc2C1=Cc1cc(O)cc(O)c1 [10738/F07] | 52.3%
12 | CC(C)c1ccc(C=C2C(=O)Nc3ccc(CCCl)cc32)cc1 [10738/G10] | 12.5%
13 | Cc1ccc(C)c(C=C2C(=O)Nc3c(Br)cc(Br)c(C)c32)c1 [10737/H07] | 51.8%
14 | Cc1c(Br)cc(Br)c2c1C(=Cc1cc(O)ccc1[N+](=O)[O-])C(=O)N2 [10738/H05] | 73.6%
15 | Cc1ccc(Oc2cccc(C=C3C(=O)Nc4ccc(CCCl)cc43)c2)cc1 [10738/G02] | 16.9%
16 | COc1ccc(C=C2C(=O)Nc3ccc(I)cc32)cc1O [10738/B04] | 70.7%
17 | Cc1ccc(Oc2cccc(C=C3C(=O)Nc4c(Br)cc(Br)c(C)c43)c2)cc1 [10738/H02] | 35.3%
18 | COc1ccc(C=C2C(=O)Nc3c(Br)cc(Br)cc32)cc1O [10738/A04] | 55.9%
19 | CNS(=O)(=O)c1ccc2c(c1)C(=Cc1ccc(C(C)C)cc1)C(=O)N2 [10738/D10] | 25.3%

Row | SMILES | Met Kinase % Inhibition (P.130)
20 | Cc1ccc(Oc2cccc(C=C3C(=O)Nc4ccc(I)cc43)c2)cc1 [10738/B02] | 78.7%
21 | CC(C)c1ccc(C=C2C(=O)Nc3ccc(S(=O)(=O)Nc4ccc(C(F)(F)F)cc4)cc32)cc1 [10738/E10] | 5.8%
22 | Cc1c(Br)ccc2c1C(=Cc1cc(O)ccc1[N+](=O)[O-])C(=O)N2 [10738/C05] | 34.2%
23 | CC(C)c1ccc(C=C2C(=O)Nc3c(Br)cc(Br)cc32)cc1 [10738/A10] | 35.7%
24 | O=C1Nc2ccc(CCCl)cc2C1=Cc1cccc(O)c1O [10738/G06] | 86.5%
25 | CCCOc1ccc(C=C2C(=O)Nc3c(Br)cc(Br)cc32)cc1 [10738/A11] | 41.7%
26 | Cc1c(Br)ccc2c1C(=Cc1ccc(C(C)C)cc1)C(=O)N2 [10738/C10] | 3.2%
27 | CNS(=O)(=O)c1ccc2c(c1)C(=Cc1cc(O)cc(O)c1)C(=O)N2 [10738/D07] | 68.3%
28 | O=C1Nc2ccc(I)cc2C1=Cc1cc(O)ccc1[N+](=O)[O-] [10738/B05] | 67.6%
29 | Cc1c(Br)cc(Br)c2c1C(=Cc1cccc(Oc3cccc(C(F)(F)F)c3)c1)C(=O)N2 [10737/H11] | 31.7%
30 | O=C1Nc2c(Br)cc(Br)cc2C1=Cc1cccc(O)c1O [10738/A06] | 95.8%
31 | CNS(=O)(=O)c1ccc2c(c1)C(=Cc1ccc(OC)c(O)c1)C(=O)N2 [10738/D04] | 32.2%
32 | O=C1Nc2ccc(S(=O)(=O)N3CCOCC3)cc2C1=Cc1cccc(Oc2ccc(Cl)c(Cl)c2)c1 [10738/F03] | 20.0%
33 | O=C1Nc2ccc(CCCl)cc2C1=Cc1cccc(Oc2ccc(Cl)c(Cl)c2)c1 [10738/G03] | 32.8%
34 | O=C1Nc2ccc(S(=O)(=O)Nc3ccc(C(F)(F)F)cc3)cc2C1=Cc1cccc(Oc2ccc(Cl)c(Cl)c2)c1 [10738/E03] | 21.1%
35 | Cc1ccc(Oc2cccc(C=C3C(=O)Nc4ccc(Br)c(C)c43)c2)cc1 [10738/C02] | 4.3%
36 | CNS(=O)(=O)c1ccc2c(c1)C(=Cc1ccc(Cl)c(Cl)c1)C(=O)N2 [10738/D08] | 37.7%
37 | Cc1c(Br)ccc2c1C(=Cc1ccc(Cl)c(Cl)c1)C(=O)N2 [10738/C08] | 39.5%
38 | Cc1c(Br)cc(Br)c2c1C(=Cc1cccc(Oc3ccc(C(C)(C)C)cc3)c1)C(=O)N2 [10737/H10] | 51.6%

Row | SMILES | Met Kinase % Inhibition (P.130)
39 | O=C1Nc2ccc(S(=O)(=O)Nc3ccc(C(F)(F)F)cc3)cc2C1=Cc1cc(O)ccc1[N+](=O)[O-] [10738/E05] | 61.0%
40 | CC(C)c1ccc(C=C2C(=O)Nc3ccc(I)cc32)cc1 [10738/B10] | 70.7%
41 | CNS(=O)(=O)c1ccc2c(c1)C(=Cc1cccc(Oc3ccc(C)cc3)c1)C(=O)N2 [10738/D02] | 15.6%
42 | O=C1Nc2ccc(CCCl)cc2C1=Cc1ccc(Cl)c(Cl)c1 [10738/G08] | 36.8%
43 | O=C1Nc2ccc(CCCl)cc2C1=Cc1cc(O)ccc1[N+](=O)[O-] [10738/G05] | 27.3%
44 | O=C1Nc2ccc(S(=O)(=O)Nc3ccc(C(F)(F)F)cc3)cc2C1=Cc1cccc(O)c1O [10738/E06] | 92.4%
45 | Cc1c(Br)cc(Br)c2c1C(=Cc1ccc3ccccc3c1)C(=O)N2 [10737/H08] | 28.0%
46 | CNS(=O)(=O)c1ccc2c(c1)C(=Cc1ccccc1OC)C(=O)N2 [10738/D09] | 22.7%
47 | Cc1ccc(Oc2cccc(C=C3C(=O)Nc4c(Br)cc(Br)cc43)c2)cc1 [10738/A02] | 10.0%
48 | COc1ccccc1C=C1C(=O)Nc2ccc(S(=O)(=O)N3CCOCC3)cc21 [10738/F09] | 28.9%
49 | CCCOc1ccc(C=C2C(=O)Nc3ccc(CCCl)cc32)cc1 [10738/G11] | 22.2%
50 | COc1ccccc1C=C1C(=O)Nc2ccc(Br)c(C)c21 [10738/C09] | 8.9%
51 | Cc1ccc(Oc2cccc(C=C3C(=O)Nc4ccc(S(=O)(=O)N5CCOCC5)cc43)c2)cc1 [10738/F02] | 66.1%
52 | O=C1Nc2c(Br)cc(Br)cc2C1=Cc1cc(O)cc(O)c1 [10738/A07] | 72.7%
53 | O=C1Nc2ccc(S(=O)(=O)N3CCOCC3)cc2C1=Cc1cc(O)ccc1[N+](=O)[O-] [10738/F05] | 33.5%
54 | CCCOc1ccc(C=C2C(=O)Nc3ccc(S(=O)(=O)N4CCOCC4)cc32)cc1 [10738/F11] | 52.6%
55 | O=C1Nc2ccc(S(=O)(=O)N3CCOCC3)cc2C1=Cc1cccc(O)c1O [10738/F06] | 86.7%
56 | Cc1c(Br)cc(Br)c2c1C(=Cc1ccc(Oc3ccccc3)cc1)C(=O)N2 [10737/H09] | 38.1%
57 | CNS(=O)(=O)c1ccc2c(c1)C(=Cc1cc(O)ccc1[N+](=O)[O-])C(=O)N2 [10738/D05] | 42.4%
